Assay results taken from patent US11446276B2, “Extreme low dose THC as a therapeutic and prophylactic agent for Alzheimer's disease” (University of South Florida, priority 2015, dated 2022).
Like-named read-outs stand apart in the source and are kept apart here.

Tests used:
[1] = test system: tau protein in PC12 cells; conditions: cited from earlier work
[2] = test system: Aβ40 in N2a/AβPPswe cells; assay: Aβ40 ELISA of N2a/AβPPswe cells treated with THC or caffeine; type: cell-based, human; conditions: THC 0.25-2500 nM or caffeine 0.625-10 μM
Aβ [3] = conditions: cited from earlier work
[4] = test system: mitochondrial complexes I and IV; conditions: in vivo; cited from earlier work
[5] = test system: hepatic mitochondrial DNA; conditions: mice; cited from earlier work
AβPP = conditions: transgenic model of AD; cited from earlier work
[6] = test system: Aβ in neuroblastoma cells; conditions: cited from earlier work
Aβ aggregation [7] = conditions: neuronal cells; cited from earlier work
Aβ in N2A cells = conditions: cited from earlier work
Aβ [8] = conditions: transgenic model of AD; cited from earlier work
Aβ1-41 = conditions: transgenic mice; cited from earlier work
tau or neurofilament = conditions: induced by wortmannin, calyculin A, okadaic acid; N2a and SH-SY5Y cells; cited from earlier work
Aβ [9] = conditions: rats; cited from earlier work
Aβ [10] = conditions: rat model of sporadic AD; cited from earlier work
Aβ aggregation [11] = conditions: PC12 cells study; cited from earlier work
mitochondrial function = conditions: Alzheimer's mice; cited from earlier work
Aβ [12] = conditions: entorhinal cortex and hippocampus; transgenic mice model of AD; cited from earlier work
Aβ [13] = conditions: frontal cortex; transgenic mice; cited from earlier work
GSK-3β phosphorylation = conditions: melatonin 100 μM at the cellular level; cited from earlier work
Aβ in N2a/AβPPswe cells = assay: Sandwich ELISA of Aβ in N2a/AβPPswe cells treated with THC and CB1 inhibitor rimonabant; type: cell-based, human
Procedure: The mechanism of action was elucidated for THC's effect on Aβ levels using a sandwich ELISA assay. N2a/AβPPswe cells, as discussed in Example 1, were suspended to 2×10^5/mL, 3 mL plated into each well, and grown in DMEM with 10% fetal bovine serum, 100 U/mL penicillin, 100 μg/mL streptomycin, and 400 μg/mL G418 (Invitrogen), at 37° C. in the presence of 5% CO2. N2a/AβPPswe cells were subcultured using trypsin, and pipetted numerous times to ensure cells were separated into individual cells. Cells were counted, as provided in Example 1, and proper amount of cell medium and fresh medium was added into new flasks according to the ratio of dilution. Pipetting was performed 10 times to homogenize cells, and 3 mL of cells were seeded into medium into each 6 well plate. When one pipette was used up, the cells were mixed in the flask before using them for the next pipette. Compounds were suspended in DMSO.
12 hours after cells were plated, cells were treated with 25 nM of Δ9-THC (T4764-1ML Sigma Aldrich, Merck KGaA; Darmstadt, Germany), with the known inhibitor of the CB1 receptor, rimonabant, at 0 μM, 100 μM, 10 μM, 1 μM, or 0.1 μM rimonabant. Untreated N2a/AβPPswe cells were used as a control. Treatment was then washed out, i.e. the medium was then removed from the cultures and 3 mL of media containing the treatment compounds were added. Cells were collected at 12 hours afterwards, 48 hours afterwards, 60 hours afterwards, and 72 hours afterwards, and ELISA was conducted on the cells.
ELISA assay was performed on the cells using 50 μL of goat anti-PWT1-42 antibody solution, which was incubated overnight, followed by a 1-hour incubation with 0.1% I-block buffer. The tissue culture supernatant was diluted 1:10 with diluent buffer containing a protease inhibitor. Standards were prepared by serial dilution, as provided in Example 1. The plate was washed and 50 μL of sample or standard was added with triplication. 50 μL of both Biosource 40/42 (HS) (primary antibody) Aβ and a standard solution was added to each well and incubated for 3 hours followed by 5× wash with PBST. […]

## C=C(C)[C@@H]1CCC(C)=C[C@H]1c1c(O)cc(CCCCC)cc1O [Cannabidiol]
[1]
  β-amyloid-induced tau protein hyperphosphorylation: inhibits β-amyloid-induced tau protein hyperphosphorylation

## Cn1c(=O)c2c(ncn2C)n(C)c1=O [caffeine]
[2]; 6 hours, FIG. 1A
  Aβ40 levels versus control: significant reduction
[2]; 24 hours, FIG. 1B
  Aβ40 levels versus control: exponential drop
[2]; 48 hours, FIG. 1C
  Aβ40 levels versus control: significant difference
Aβ [3]; mouse model
  Serum Aβ40 levels: lower serum Aβ40 levels
Aβ [3]; transgenic mouse model
  Brain Aβ levels: lowering brain Aβ levels

## COc1ccc2[nH]cc(CCNC(C)=O)c2c1 [melatonin]
[4]
  Inhibition of mitochondrial complexes I and IV induced by ruthenium red: prevented the inhibition of mitochondrial complexes I and IV
[5]
  Ethanol-induced hepatic mitochondrial DNA depletion: protects against ethanol-induced hepatic mitochondrial DNA depletion
AβPP
  AβPP levels: no change in AβPP levels
[6]
  Aβ levels: reduction of Aβ levels
Aβ aggregation [7]
  Aβ aggregation: reduced Aβ aggregation
Aβ in N2A cells
  Aβ levels: reduced Aβ levels
Aβ [8]
  Aβ levels: reduction in Aβ levels
Aβ1-41
  Aβ1-41 levels: decreased Aβ1-41 levels
Tau or neurofilament
  Tau or neurofilament hyperphosphorylation: efficiently attenuates tau or neurofilament hyperphosphorylation
Aβ [9]
  Hippocampal Aβ generation: reduced hippocampal Aβ generation
Aβ [10]
  Aβ accumulation: attenuates Aβ accumulation
Aβ aggregation [11]
  Aβ aggregation: prevents Aβ aggregation
Mitochondrial function
  Mitochondrial function: restores mitochondrial function
Aβ [12]
  Aggregation of Aβ: decreased the aggregation of Aβ
Aβ [13]
  Aβ levels: reduces Aβ levels
GSK-3β phosphorylation
  Decreased GSK-3β phosphorylation: about 40%

## Cc1c(C(=O)NN2CCCCC2)nn(-c2ccc(Cl)cc2Cl)c1-c1ccc(Cl)cc1 [rimonabant]
Aβ in N2a/AβPPswe cells; antagonist at 10^−4 M with 25 nM THC
  Block of THC's Aβ lowering by CB1 antagonist: partially blocked
Aβ in N2a/AβPPswe cells; antagonist at 10^−7 M with 25 nM THC
  Block of THC's Aβ lowering by CB1 antagonist: inhibition function is lost
